Experimental data from US9198896B2 (priority 2006, dated 2015).
Entries after “also recorded” stand apart in the source; their conditions may differ. Like-named read-outs stand apart in the source and are kept apart here. Marks after values point to notes of the source that are not given here.

Key:
[1] = Long-term (chronic) toxicity study, rabbits; details: rabbit, long-term treatment
Text: Long-term (chronic) toxicity study: Mode of treatment and dilution by either water or normal saline were identical to acute toxicity study. Chronic toxicity study was made with four species of animals: mice, rat, rabbit and dog.
Rabbits. For experiments with rabbits, two groups were used per mode of treatment. Each group in each mode of treatment consists of 4 animals, either male or female.
However, each animal was placed in a separate cage.
Total number of animals in each group including control and different modes of treatment: 6 (mice), 5 (rats) and 4 (rabbits). Each set of experiment was repeated 4 times for mice and rats and for rabbits 2 times respectively. […] In Table 3, αWeight of animals for mice and rats in gm and for rabbit in Kg.
We also measured the body weights of the animals. […] Besides, we also measured several marker enzymes and metabolites in the blood and sera of dog (see below).

[2] = for Blood cells, remarks: dog and bitch
Text: Hemoglobin was estimated by reacting the blood sample with Drabkin's reagent to convert it to cyanmethemoglobin and measuring the absorbance at 540 nm. Urea was estimated by reacting it with hot acidic diacetylmonoxime in the presence of semicarbarzide and measuring the rose-purple color at 525 nm. Glucose was estimated by glucose oxidase method in the presence of peroxidase and measuring the absorbance of the colored complex of hydroxybenzoate and 4-aminophenazone at 510 nm. Creatinine was measured by reacting it with alkaline picrate and measuring the absorbance of the red-colored complex at 520 nm. Alkaline phosphatase was assayed by its ability to convert phenyl phosphate to inorganic phosphate and phenol. The later reacts with 4-aminoantipyrine to form an orange-red-colored complex, which was measured at 510 nm. Aspartate transaminase was measured by reacting the reaction product oxaloacetate (from the substrate 1-aspartic acid) with 2,4-dinitrophenyl hydrazine. The hydrazone thus formed gives a characteristic brown color when placed in an alkaline medium and was measured at 505 nm. Alanine transaminase was assayed similarly by 2,4-dinitrophenylhydrazine-alkali color reaction; the substrate and products are 1-alanine and pyruvate respectively.
Long-term toxicity test with non-rodents (dog and bitch). Total of 6 animals (4 dogs and 2 bitches) were used for this experiment. The animals were 3-4 months old. Three different modes of treatment were used; two animals received the formulation orally, the other two by intravenous injection and the other two by subcutaneous injection. The total period of treatment was for 4 weeks (5 days per week).
Dogs. For biochemical analysis, blood samples from each individual animal were collected and processed similarly to that of rats. The samples were collected just before the treatment commenced, in mid-phase of the treatment and 7 days after completion of the treatment. The samples were analyzed for the activities of several enzymes and metabolite contents as per the methods described in the respective assay kit and are briefly mentioned before. Hemoglobin estimation and cell count were done with an uncoagulated sample.
However, subcutaneous injections appeared to be painful. The biochemical tests and some hematological studies were performed with blood of the animals, the results of which are presented in the Tables.

[3] = Biochemical tests of blood/sera of rats after long-term treatment; format: in vivo, rat; details: 1 week after long-term treatment
[4] = Pharmacokinetics, repeat oral dose study; format: in vivo; details: mice; for V / k / half-life at 30 days: oral 100 mg/kg body wt./day; for half-life at 30 days: mouse, whole blood, po, 100 mg/kg, read-out: t½ (converted)
EAC cells [5] = assay: Increase in body weight of EAC cell-inoculated mice; format: in vivo; details: Table 10
Experimental: Increase in body weight: For this experiment, mice were weighed periodically during and after the therapy. The results are expressed as percentage increase in the body weight using the following relationship: percent increase equals
Ehrlich ascites carcinoma bearing mice were treated intraperitonially with different drug combinations in normal saline to observe their effect on body weight (table 10) and life span (table 11). Mice in the control group were similarly treated intraperitonially only with normal saline.
The day on which 10^5 EAC cells were inoculated into each mouse was considered as day 0. The treatment started from day 3. […] 6 animals received a particular mode of treatment. Control group received only normal saline. […] Each set of experiment was repeated 4 times.

[6] = both, rat, in vivo, 6 weeks
EAC cells [7] = assay: Increase in body weight of EAC cell-inoculated mice; format: in vivo
[8] = tested on: ascites sarcoma 180 cells; details: Együd and Szent-Györgyi, 1968; cited from earlier work
Fertility study = details: oral or intravenous, dose and schedule as chronic toxicity test
EAC cells [9] = assay: Tumor growth inhibition study; details: for % of cells present in respect of the control / No. of EAC cells (in million) / Volume of packed cells: day 3 to day 16
[10] = time after last dose Up to 48 h
[11] = oral 100 mg/kg/day, last dose day 30

CC(=O)C=O [methylglyoxal]
general physical conditions and behavioral pattern vs control [1]: no abnormalities
Blood cells, remarks ([2]; After treatment): Mild hypochromia; also recorded: No abnormal cells
Blood cells, remarks ([2]; Mid-phase treatment): Mild hypochromia; also recorded: No abnormal cells
Basophils ([2]; dog, in vivo): 0%
general physical conditions and behavioral pattern vs control ([2]; dog, long-term treatment): no abnormalities
death ([2]; dogs, during and after the treatment (90 days)): no death occurred
Creatine kinase ([3]; Intravenous): 0.36 ± 0.04 units/ml
Creatine kinase-MB ([3]; Intravenous): 0.18 ± 0.01 units/ml
Hb ([3]; Intravenous): 10.2 ± 0.8 gm/dl
Serum Urea ([3]; Intravenous): 26.3 ± 2.1 mg/dL
Serum alanine transaminase ([3]; Intravenous): 28 ± 1.6 units/ml
Serum alkaline phosphatase ([3]; Intravenous): 41.6 ± 1.2 KA units
Serum aspartate transaminase ([3]; Intravenous): 125 ± 5 units/ml
Serum creatinine ([3]; Intravenous): 0.90 ± 0.02 mg/dL
Serum glucose ([3]; Intravenous): 102 ± 10 mg/dL
Creatine kinase ([3]; Oral): 0.37 ± 0.05 units/ml
Creatine kinase-MB ([3]; Oral): 0.16 ± 0.03 units/ml
Hb ([3]; Oral): 10.4 ± 0.3 gm/dl
Serum Urea ([3]; Oral): 24.3 ± 1.9 mg/dL
Serum alanine transaminase ([3]; Oral): 24 ± 2.5 units/ml
Serum alkaline phosphatase ([3]; Oral): 39.3 ± 1.6 KA units
Serum aspartate transaminase ([3]; Oral): 132 ± 3 units/ml
Serum creatinine ([3]; Oral): 0.82 ± 0.03 mg/dL
Serum glucose ([3]; Oral): 109 ± 6 mg/dL
Hb ([3]; Subcutaneous): 10.35 ± 0.35 gm/dl
Serum Urea ([3]; Subcutaneous): 23.5 ± 1.3 mg/dL
Serum alanine transaminase ([3]; Subcutaneous): 28 ± 2.8 units/ml
Serum alkaline phosphatase ([3]; Subcutaneous): 45.3 ± 1.8 KA units
Serum aspartate transaminase ([3]; Subcutaneous): 141 ± 7 units/ml
Serum creatinine ([3]; Subcutaneous): 0.85 ± 0.03 mg/dL
Serum glucose ([3]; Subcutaneous): 122 ± 3 mg/dL
V ([4]; time after last dose 48-120 h): 50.89 L/kg
k ([4]; time after last dose 48-120 h): 0.0231 h − 1
V [4, 10]: 73.90 L/kg
k [4, 10]: 0.0017 h − 1
day from which peak concentration was achieved [4, 11]: three
day on which the basal level was reached [4, 11]: ~35 days
half-life at 30 days ([4]; time after last dose 48-120 h): 1.25 days
half-life at 30 days [4, 10]: 17 days
Percent increase in body weight (EAC cells [5]; MG 30 mg/kg/day ip, Day 15): 15.8 ± 1.3%
Percent increase in body weight (EAC cells [5]; MG 30 mg/kg/day ip, Day 25): 30.0 ± 2.9%
Percent increase in body weight (EAC cells [5]; MG 30 mg/kg/day ip, Day 35, 2 animals survived out of 6): 38.8 ± 3.0^b %
Percent increase in body weight (EAC cells [5]; MG 100 mg/kg body weight/day ip, Day 15): 8.0 ± 0.7%
Percent increase in body weight (EAC cells [5]; MG 100 mg/kg body weight/day ip, Day 20): 10.0 ± 1.2%
Percent increase in body weight (EAC cells [5]; MG 100 mg/kg body weight/day ip, Day 25): 11.0 ± 1.0%
healthy litters per female, on an average [6]: 5
Percent increase in body weight (EAC cells [7]; Table 8, MG 30 mg/kg/day, Day 15): 15.8 ± 1.3%
Percent increase in body weight (EAC cells [7]; Table 8, MG 30 mg/kg/day, Day 20): 19.0 ± 1.6%
Percent increase in body weight (EAC cells [7]; Table 8, MG 30 mg/kg/day, Day 25): 30.0 ± 2.9%
Percent increase in body weight (EAC cells [7]; Table 8, MG 30 mg/kg/day, Day 30): 32.9 ± 3.0%
Percent increase in body weight (EAC cells [7]; Table 8, MG 30 mg/kg/day, Day 35, 2 animals survived out of 6): 38.8 ± 3.0^b %
Percent increase in body weight (EAC cells [7]; Table 8, MG 100 mg/kg/day, Day 15): 8.0 ± 0.7%
Percent increase in body weight (EAC cells [7]; Table 8, MG 100 mg/kg/day, Day 20): 10.0 ± 1.2%
Percent increase in body weight (EAC cells [7]; Table 8, MG 100 mg/kg/day, Day 25): 11.0 ± 1.0%
Percent increase in body weight (EAC cells [7]; Table 8, MG 100 mg/kg/day, Day 30): 11.2 ± 0.9%
Percent increase in body weight (EAC cells [7]; Table 8, MG 100 mg/kg/day, Day 35): 11.2 ± 1.1%
Percent increase in body weight (EAC cells [7]; Table 10, MG 30 mg/kg/day ip, Day 20): 19.0 ± 1.6%
Percent increase in body weight (EAC cells [7]; Table 10, MG 30 mg/kg/day ip, Day 30): 32.9 ± 3.0%
Percent increase in body weight (EAC cells [7]; Table 10, MG 100 mg/kg body weight/day ip, Day 30): 11.2 ± 0.9%
Percent increase in body weight (EAC cells [7]; Table 10, MG 100 mg/kg body weight/day ip, Day 35): 11.2 ± 1.1%
tumor development [8]: no tumor developed
abnormalities among the litters (Fertility study): Neither deformation of organs nor any other abnormalities
effect on cell proliferation in the peritoneal cavity (EAC cells [9]; EAC cell-inoculated mice, doses of Table 9): significant inhibitory effect
% of cells present in respect of the control (EAC cells [9]; MG 30 mg/kg/day, Day 10): 5%
No. of EAC cells (in million) (EAC cells [9]; MG 30 mg/kg/day, Day 10): 15 ± 2 million
% of cells present in respect of the control (EAC cells [9]; MG 30 mg/kg/day, Day 14): 13%
No. of EAC cells (in million) (EAC cells [9]; MG 30 mg/kg/day, Day 14): 230 ± 10 million
Volume of packed cells (EAC cells [9]; MG 30 mg/kg/day, Day 14): 0.26 ± 0.02 mL
% of cells present in respect of the control (EAC cells [9]; MG 30 mg/kg/day, Day 18): 23%
No. of EAC cells (in million) (EAC cells [9]; MG 30 mg/kg/day, Day 18): 820 ± 30 million
Volume of packed cells (EAC cells [9]; MG 30 mg/kg/day, Day 18): 0.96 ± 0.05 mL
% of cells present in respect of the control (EAC cells [9]; MG 100 mg/kg/day, Day 10): 0%
% of cells present in respect of the control (EAC cells [9]; MG 100 mg/kg/day, Day 14): 0%
% of cells present in respect of the control (EAC cells [9]; MG 100 mg/kg/day, Day 18): 0%
